Laboratory results as given in patent US6727264B1 (Synaptic Pharmaceutical Corporation, priority 2001, dated 2004).
Read-outs that look alike come from different tables or passages of the source.

Biological target: rat MCH-1 (Rattus norvegicus, UniProt P97639)
Assay: Radioligand binding assay at cloned rat MCH1 receptor ([3H] Compound A)
Parameters: host or cells: Peak rapid 293 (Peakr293) cells, transient calcium phosphate transfection, membranes
Conditions: cloned rat MCH1 receptor, 0.08 nM [3H] Compound A, read-out: Ki (nM) rMCH1

rat MCH-1, sequence (P97639 whole entry): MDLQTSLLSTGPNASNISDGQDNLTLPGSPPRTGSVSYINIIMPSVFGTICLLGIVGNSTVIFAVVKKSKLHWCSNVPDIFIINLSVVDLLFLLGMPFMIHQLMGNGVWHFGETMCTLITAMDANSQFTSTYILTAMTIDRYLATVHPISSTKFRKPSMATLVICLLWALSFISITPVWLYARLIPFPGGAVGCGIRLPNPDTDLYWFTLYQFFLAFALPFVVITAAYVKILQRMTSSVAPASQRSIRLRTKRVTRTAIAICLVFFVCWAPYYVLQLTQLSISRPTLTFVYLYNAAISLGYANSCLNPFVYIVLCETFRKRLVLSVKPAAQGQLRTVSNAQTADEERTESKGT

O=C(CCCCN1CCC(c2cccc(NC(=O)C3CC3)c2)CC1)c1ccc([N+](=O)[O-])cc1 [Example 557] was tested, and the Ki (Peakr293 cell membranes) was 25.6 nM.

Work on CC(C)C(=O)Nc1cccc(C2CCN(CCCCCCNC(=O)C(c3ccccc3)c3ccccc3)CC2)c1 [Example 625] yielded a Ki (Peakr293 cell membranes) of 29.5 nM.

With CC(=O)c1cccc(OC(CCCCCN2CCC(c3cccc(NC(=O)C(C)C)c3)CC2)c2ccccc2)c1 (centres unmarked) [Example 903] the Ki (Peakr293 cell membranes) was 12.2 nM.

Cc1cccc2c(CCCN3CCC(c4cccc(NC(=O)C(C)C)c4)CC3)c(-c3ccccc3I)[nH]c12 [Example 793] showed a Ki (Peakr293 cell membranes) of 16.3 nM.

For Cc1ccccc1OC(CCN1CCC(c2cccc(NC(=O)C(C)C)c2)CC1)c1ccc(Cl)cc1 (centres unmarked) [Example 126], the Ki (membranes from Peakr293 cells) was 13.8 nM.

With CC(C)C(=O)Nc1cccc(C2CCN(CCCc3c(-c4cccc(I)c4)[nH]c4ccccc34)CC2)c1 [Example 737] the Ki (Peakr293 cell membranes) was 1 nM.

For CC(C)C(=O)Nc1cccc(C2CCN(CCCCC(=O)c3cccc(C(F)(F)F)c3)CC2)c1 [Example 670], the Ki (Peakr293 cell membranes) was 57.6 nM.

With CC(C)C(=O)Nc1cccc(C2CCN(CCCc3c(-c4cccc(Cl)c4)[nH]c4c3ccc3ccccc34)CC2)c1 [Example 728] the Ki (Peakr293 cell membranes) was 16.3 nM.

CC(C)C(=O)Nc1cccc(C2CCN(CC[C@H](NS(=O)(=O)c3ccc(F)c(F)c3)c3ccccc3)CC2)c1 [Example 592] was tested, and the Ki (Peakr293 cell membranes) was 186 nM.

CC(C)C(=O)Nc1cccc(C2CCN(Cc3cccc4c3ccn4-c3ccccc3C(F)(F)F)CC2)c1 [Example 876] gave a Ki (Peakr293 cell membranes) of 758 nM.

For CC(C)C(=O)Nc1cccc(C2CCN(CCCCCCNC(=O)Nc3ccc4ccccc4c3)CC2)c1 [Example 636], the Ki (Peakr293 cell membranes) was 40.8 nM.

CC(C)C(=O)Nc1cccc(C2CCN(CCC(Oc3ccccc3)c3ccc(F)cc3)CC2)c1 (centres unmarked) [Example 174] was tested, and the Ki (membranes from Peakr293 cells) was 17 nM.

CC(=O)c1cccc(OCCCCN2CCC(c3cccc(NC(=O)C(C)C)c3)CC2)c1 [Example 375] gave a Ki (membranes from Peakr293 cells) of 186 nM.

With O=C(CCCN1CCC(c2cccc(NC(=O)C3CC3)c2)CC1)c1ccc(Br)cc1 [Example 544] the Ki (Peakr293 cell membranes) was 16.2 nM.

For CC(C)C(=O)Nc1cccc(C2CCN(CCCc3c(-c4ccccc4F)n(C)c4ccccc34)CC2)c1 [Example 709], the Ki (Peakr293 cell membranes) was 1.3 nM.

For CC(C)C(=O)Nc1ccc(C2CCN(CCCCCn3ccc4ccccc43)CC2)cc1 [Example 825], the Ki (Peakr293 cell membranes) was 601 nM.

With CCCOc1ccc(CN2CCC(c3cccc(NC(=O)C(C)C)c3)CC2)c2ccccc12 [Example 197] the Ki (membranes from Peakr293 cells) was 63.1 nM.

CC(C)C(=O)Nc1cccc(C2CCN(Cc3c(OCc4ccc(C#N)cc4)ccc4ccccc34)CC2)c1 [Example 190] was tested, and the Ki (membranes from Peakr293 cells) was 436 nM.

Cc1onc(-c2c(Cl)cccc2Cl)c1C(=O)OCCCCN1CCC(c2cccc(NC(=O)C(C)C)c2)CC1 [Example 294, 4-{4-[3-(ISOBUTYRYLAMINO)PHENYL]-1-PIPERIDINYL}BUTYL 3-(2,6-DICHLOROPHENYL)-5-METHYL-4-ISOXAZOLECARBOXYLATE] gave a Ki (membranes from Peakr293 cells) of 15.8 nM.

Work on CC(C)C(=O)Nc1cccc(C2CCN(Cc3ccc(C(C)(C)C)cc3)CC2)c1 [Example 806] yielded a Ki (Peakr293 cell membranes) of 14.1 nM.

COc1ccc(OC(CCCCCN2CCC(c3cccc(NC(=O)C(C)C)c3)CC2)c2ccccc2)cc1 (centres unmarked) [Example 898] gave a Ki (Peakr293 cell membranes) of 33.7 nM.

Cc1ccc2[nH]c(-c3cccc([N+](=O)[O-])c3)c(CCCN3CCC(c4cccc(NC(=O)C(C)C)c4)CC3)c2c1 [Example 769] showed a Ki (Peakr293 cell membranes) of 12.4 nM.

For CC(C)C(=O)Nc1cccc(C2CCN(CCCC/C(=N\Nc3ccccc3)c3ccc([N+](=O)[O-])cc3)CC2)c1 [Example 778], the Ki (Peakr293 cell membranes) was 26.5 nM.

In the case of CC(C)C(=O)Nc1cccc(C2CCN(CCCOc3ccc(Cl)cc3)CC2)c1 [Example 345], the Ki (membranes from Peakr293 cells) is reported as 15.4 nM.

With Cc1nn(-c2ccccc2)c(Cl)c1CN1CCC(c2cccc(NC(=O)C(C)C)c2)CC1 [Example 202] the Ki (membranes from Peakr293 cells) was 155 nM.

Work on COc1ccc2[nH]c(-c3ccccc3)c(CN3CCC(c4cccc(NC(=O)C(C)C)c4)CC3)c2c1 [Example 444] yielded a Ki (Peakr293 cell membranes) of 545 nM.

With CC(C)C(=O)Nc1cccc(C2CCN(C(C)CCC(=O)c3ccccc3)CC2)c1 (centres unmarked) [Example 570] the Ki (Peakr293 cell membranes) was 136 nM.

For CC(C)C(=O)Nc1cccc(C2CCN(Cc3cccc(N(C)C)c3)CC2)c1 [Example 211], the Ki (membranes from Peakr293 cells) was 111 nM.

With CCCCN(CCCC)c1ccc(CN2CCC(c3cccc(NC(=O)C(C)C)c3)CC2)cc1 [Example 261] the Ki (membranes from Peakr293 cells) was 6.5 nM.
